Test results from ChEMBL document CHEMBL3044836, “Synthesis, antimicrobial and cytotoxic activities of novel 4-trifluoromethyl-(1,2,3)-thiadiazolo-5-carboxylic acid hydrazide Schiffs bases” (Med Chem Res, 2013).
≈ marks a conversion by molar mass, not a printed value.

Legend:
Assay type in all cases: functional
MCF7 = test: Cytotoxicity against Homo sapiens (human) MCF7 cells assessed as cell viability at 10 uM after 48 hr by MTT assay relative to control; conditions: MCF7, 48 h, read-out: Activity
MDA-MB-231 = test: Cytotoxicity against Homo sapiens (human) MDA-MB-231 cells assessed as cell viability at 10 uM after 48 hr by MTT assay relative to control; conditions: MDA-MB-231, 48 h, read-out: Activity
Aspergillus niger [1] = test: Antifungal activity against Aspergillus niger MTCC 1344 assessed as growth inhibition at 150 ug/ml after 48 hr by agar cup diffusion method; conditions: MTCC 1344, 48 h, read-out: DIZ
Aspergillus niger [2] = test: Antifungal activity against Aspergillus niger MTCC 1344 assessed as growth inhibition at 100 ug/ml after 48 hr by agar cup diffusion method; conditions: MTCC 1344, 48 h, read-out: DIZ
Saccharomyces cerevisiae [3] = test: Antifungal activity against Saccharomyces cerevisiae MTCC 36 assessed as growth inhibition at 150 ug/ml after 48 hr by agar cup diffusion method; conditions: MTCC 36, 48 h, read-out: DIZ
Saccharomyces cerevisiae [4] = test: Antifungal activity against Saccharomyces cerevisiae MTCC 36 assessed as growth inhibition at 100 ug/ml after 48 hr by agar cup diffusion method; conditions: MTCC 36, 48 h, read-out: DIZ
Diutina rugosa [5] = test: Antifungal activity against Candida rugosa NCIM 3462 assessed as growth inhibition at 150 ug/ml after 48 hr by agar cup diffusion method; conditions: NCIM 3462, 48 h, read-out: DIZ
Diutina rugosa [6] = test: Antifungal activity against Candida rugosa NCIM 3462 assessed as growth inhibition at 100 ug/ml after 48 hr by agar cup diffusion method; conditions: NCIM 3462, 48 h, read-out: DIZ
Candida albicans [7] = test: Antifungal activity against Candida albicans MTCC 227 assessed as growth inhibition at 150 ug/ml after 48 hr by agar cup diffusion method; conditions: MTCC 227, 48 h, read-out: DIZ
Candida albicans [8] = test: Antifungal activity against Candida albicans MTCC 227 assessed as growth inhibition at 100 ug/ml after 48 hr by agar cup diffusion method; conditions: MTCC 227, 48 h, read-out: DIZ
Klebsiella pneumoniae = test: Antibacterial activity against Klebsiella pneumoniae assessed as growth inhibition by broth dilution method
Pseudomonas aeruginosa = test: Antibacterial activity against Pseudomonas aeruginosa MTCC 741 assessed as growth inhibition by broth dilution method
Staphylococcus aureus = test: Antibacterial activity against Staphylococcus aureus MTCC 96 assessed as growth inhibition by broth dilution method
Bacillus subtilis = test: Antibacterial activity against Bacillus subtilis MTCC 441 assessed as growth inhibition by broth dilution method
[9] = system: Staphylococcus epidermidis; test: Antibacterial activity against Staphylococcus epidermidis MTCC 435 assessed as growth inhibition by broth dilution method
Escherichia coli = test: Antibacterial activity against Escherichia coli MTCC 443 assessed as growth inhibition by broth dilution method

Structure (SMILES)	zone of inhibition at 150 µg/mL (Aspergillus niger [1]) [mm]	zone of inhibition at 100 µg/mL (Aspergillus niger [2]) [mm]	zone of inhibition at 150 µg/mL (Saccharomyces cerevisiae [3]) [mm]	zone of inhibition at 100 µg/mL (Saccharomyces cerevisiae [4]) [mm]	zone of inhibition at 150 µg/mL (Diutina rugosa [5]) [mm]	zone of inhibition at 100 µg/mL (Diutina rugosa [6]) [mm]	zone of inhibition at 150 µg/mL (Candida albicans [7]) [mm]	zone of inhibition at 100 µg/mL (Candida albicans [8]) [mm]	MIC (Klebsiella pneumoniae) [µg/mL]	MIC (Pseudomonas aeruginosa; read-out: MIC) [µg/mL]	MIC (Bacillus subtilis; read-out: MIC) [µg/mL]	MIC ([9]; read-out: MIC) [µg/mL]	MIC (Escherichia coli; read-out: MIC) [µg/mL]	MIC (Klebsiella pneumoniae; read-out: MIC) [µg/mL]	MIC (Staphylococcus aureus; read-out: MIC) [µg/mL]	MIC (Bacillus subtilis) [µg/mL]	other results
O=C(N/N=C/c1ccccc1)c1snnc1C(F)(F)F	0	0	0	0	6	0	12	10	> 150	150 (≈ 500 µM)	150 (≈ 500 µM)	150 (≈ 500 µM)	150 (≈ 500 µM)				viability at 10 µM (MCF7): 102%; viability at 10 µM (MDA-MB-231): 102%; MIC (Staphylococcus aureus): > 150 µg/mL
O=C(N/N=C/c1ccco1)c1snnc1C(F)(F)F	0	0	0	0	0	0	0	0		150 (≈ 517 µM)	150 (≈ 517 µM)	150 (≈ 517 µM)	150 (≈ 517 µM)	150 (≈ 517 µM)	150 (≈ 517 µM)		viability at 10 µM (MCF7): 100%; viability at 10 µM (MDA-MB-231): 89.5%
CN(C)c1ccc(/C=N/NC(=O)c2snnc2C(F)(F)F)cc1	0	0	0	0	0	0	0	0	> 150	150 (≈ 437 µM)	150 (≈ 437 µM)	150 (≈ 437 µM)			150 (≈ 437 µM)		MIC (Escherichia coli): > 150 µg/mL
C/C(=N\NC(=O)c1snnc1C(F)(F)F)c1ccc([N+](=O)[O-])cc1	0	0	0	0	0	0	0	0	> 150	150 (≈ 417 µM)			150 (≈ 417 µM)		150 (≈ 417 µM)	> 150	MIC [9]: > 150 µg/mL
O=C(NN=C1CCCCCC1)c1snnc1C(F)(F)F	0	0	0	0	0	0	0	0		150 (≈ 490 µM)			150 (≈ 490 µM)	150 (≈ 490 µM)	150 (≈ 490 µM)	> 150	MIC [9]: > 150 µg/mL
O=C(N/N=C/c1ccc(O)cc1)c1snnc1C(F)(F)F	0	0	0	0	0	0	0	0	> 150		150 (≈ 474 µM)	150 (≈ 474 µM)	150 (≈ 474 µM)		150 (≈ 474 µM)		MIC (Pseudomonas aeruginosa): > 150 µg/mL
O=C(N/N=C/c1ccc(Cl)cc1)c1snnc1C(F)(F)F	0	0	0	0	0	0	0	0		150 (≈ 448 µM)				150 (≈ 448 µM)	150 (≈ 448 µM)	> 150	MIC [9]: > 150 µg/mL; MIC (Escherichia coli): > 150 µg/mL
CC1(C)S[C@@H]2[C@H](NC(=O)Cc3ccccc3)C(=O)N2[C@H]1C(=O)O [PENICILLIN G]										12.5 (≈ 37.4 µM)	1.56 (≈ 4.67 µM)	3.12 (≈ 9.35 µM)	12.5 (≈ 37.4 µM)	6.25 (≈ 18.7 µM)	1.56 (≈ 4.67 µM)		
O=C(NN=C1CCCCC1)c1snnc1C(F)(F)F	0	0	0	0	0	0	7	0			150 (≈ 513 µM)	150 (≈ 513 µM)	150 (≈ 513 µM)	150 (≈ 513 µM)	150 (≈ 513 µM)		viability at 10 µM (MCF7): 97.2%; viability at 10 µM (MDA-MB-231): 78.6%; MIC (Pseudomonas aeruginosa): > 150 µg/mL
O=C(N/N=C/c1ccc(Br)cc1)c1snnc1C(F)(F)F	0	0	0	0	0	0	0	0				150 (≈ 396 µM)		150 (≈ 396 µM)	150 (≈ 396 µM)	> 150	MIC (Pseudomonas aeruginosa): > 150 µg/mL; MIC (Escherichia coli): > 150 µg/mL
CC(C)=NNC(=O)c1snnc1C(F)(F)F	0	0	0	0	0	0	0	0		150 (≈ 595 µM)	150 (≈ 595 µM)	150 (≈ 595 µM)	150 (≈ 595 µM)	150 (≈ 595 µM)	150 (≈ 595 µM)		
CN[C@@H]1[C@H](O[C@H]2[C@H](O[C@H]3[C@H](O)[C@@H](O)[C@H](N=C(N)N)[C@@H](O)[C@@H]3N=C(N)N)O[C@@H](C)[C@]2(O)C=O)O[C@@H](CO)[C@H](O)[C@H]1O [STREPTOMYCIN]										1.56 (≈ 2.69 µM)	6.25 (≈ 10.7 µM)	3.12 (≈ 5.37 µM)	6.25 (≈ 10.7 µM)	3.12 (≈ 5.37 µM)	6.25 (≈ 10.7 µM)		
O=C(N/N=C/c1ccc([N+](=O)[O-])cc1)c1snnc1C(F)(F)F	0	0	0	0	0	0	0	0		150 (≈ 434 µM)	150 (≈ 434 µM)	150 (≈ 434 µM)	150 (≈ 434 µM)	150 (≈ 434 µM)	150 (≈ 434 µM)		
